Reference: ChEMBL document CHEMBL1201862, “PubChem BioAssay data set” (2004)
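How tested: cells in 96-well plates exposed to compound for 48 hours at five concentrations. Here, GI50 denotes the concentration required for 50% inhibition of growth.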 Calls of active or inactive are those of the source. No stated cut-off is given here; in the data, active = GI50 up to about 1.1 µM and inactive = higher.

Assays:
Test in all cases: growth of human tumour cells (NCI), 48 h
UACC-257 = system: UACC-257
Malme-3M = system: Malme-3M
SK-MEL-2 = system: SK-MEL-2
MOLT-4 = system: MOLT-4
A549 = system: A549
SF-268 = system: SF-268
OVCAR-3 = system: OVCAR-3
NCI/ADR-RES = system: NCI/ADR-RES
PC-3 = system: PC-3
HCC 2998 = system: HCC 2998
SK-MEL-5 = system: SK-MEL-5
K562 = system: K562
MDA-N = system: MDA-N
DMS-273 = system: DMS-273
NCI-H460 = system: NCI-H460
SR = system: SR
HL-60 = system: HL-60
OVCAR-4 = system: OVCAR-4
HT-29 = system: HT-29
HCT-15 = system: HCT-15

Row | SMILES | GI50 (UACC-257) | GI50 (Malme-3M) | GI50 (SK-MEL-2) | GI50 (MOLT-4) | GI50 (A549) | GI50 (SF-268) | GI50 (OVCAR-3) | GI50 (NCI/ADR-RES) | GI50 (PC-3) | GI50 (HCC 2998) | GI50 (SK-MEL-5) | GI50 (K562) | GI50 (MDA-N) | GI50 (DMS-273) | GI50 (NCI-H460) | GI50 (SR) | GI50 (HL-60) | GI50 (OVCAR-4) | GI50 (HT-29) | GI50 (HCT-15) [µM]
1 | Cc1cc(N(CC(C)Br)CC(C)Br)ccc1/N=N/c1ccccc1C(=O)O (configuration not stated) | 4.53 µM (inactive) | 4.61 µM (inactive) | 2.93 µM (inactive) | 16.9 µM (inactive) | 3.04 µM (inactive) | 7.73 µM (inactive) | 16.9 µM (inactive) | 15.2 µM (inactive) | 12.9 µM (inactive) | 1.15 µM (inactive) | 3.19 µM (inactive) | 1.03 µM (active) | 4.23 µM (inactive) | 4.59 µM (inactive) | 0.454 µM (active) | 2.62 µM (inactive) | 6.05 µM (inactive) | 2.09 µM (inactive) | 4.85 µM (inactive) | 8.81
2 | CC(C)(C)c1cc(C=C(C#N)C#N)cc(C(C)(C)C)c1O [TYRPHOSTIN A9] | 0.281 µM (active) | 0.439 µM (active) | 0.365 µM (active) | 0.374 µM (active) | 0.316 µM (active) | 0.344 µM (active) | 0.258 µM (active) | 0.299 µM (active) | 0.256 µM (active) | 0.456 µM (active) | 0.376 µM (active) | 0.305 µM (active) | 0.608 µM (active) | 0.736 µM (active) | 0.171 µM (active) | 0.396 µM (active) | 0.329 µM (active) | 0.724 µM (active) | 0.375 µM (active) | 0.366
3 | c1ccc2c(c1)cc(C1NCCc3nc[nH]c31)c1ccccc12 (configuration not stated) | 31 µM (inactive) | 30.6 µM (inactive) | 18.4 µM (inactive) | 21 µM (inactive) | 54.5 µM (inactive) | 77.1 µM (inactive) | > 61.9 µM (inactive) | – | – | 15.7 µM (inactive) | > 48 µM (inactive) | 15.2 µM (inactive) | – | 29.7 µM (inactive) | 22.6 µM (inactive) | 34.3 µM (inactive) | 41.6 µM (inactive) | 37.2 µM (inactive) | 44.4 µM (inactive) | 59.6
4 | COc1ccc(C(=O)c2cc(OC)c(OC)c(OC)c2)cc1 | 0.769 µM (active) | 0.0586 µM (active) | 0.342 µM (active) | 0.0715 µM (active) | 0.106 µM (active) | 0.838 µM (active) | 0.0769 µM (active) | 0.054 µM (active) | 0.0775 µM (active) | 0.321 µM (active) | 0.0702 µM (active) | 0.0392 µM (active) | 0.016 µM (active) | 0.0863 µM (active) | 0.0735 µM (active) | 0.0581 µM (active) | 0.031 µM (active) | 28.6 µM (inactive) | 0.0372 µM (active) | 0.0566
5 | CC(=O)OC1(C#N)CC2OC1C1N=NN(C(=O)OC(C)(C)C)C21 (configuration not stated) | 20.4 µM (inactive) | 34.7 µM (inactive) | 11.2 µM (inactive) | 34 µM (inactive) | > 10 µM (inactive) | 61.1 µM (inactive) | 43.1 µM (inactive) | – | – | > 100 µM (inactive) | > 31.6 µM (inactive) | 29.9 µM (inactive) | – | 36.5 µM (inactive) | > 100 µM (inactive) | 15 µM (inactive) | 20.6 µM (inactive) | 28.4 µM (inactive) | > 100 µM (inactive) | 13.8
6 | CCOC(=O)/C(=C/c1ccc(OC)cc1)N(CC)CC | > 100 µM (inactive) | > 100 µM (inactive) | > 100 µM (inactive) | > 100 µM (inactive) | > 100 µM (inactive) | > 100 µM (inactive) | > 100 µM (inactive) | – | – | > 100 µM (inactive) | > 100 µM (inactive) | > 100 µM (inactive) | – | > 100 µM (inactive) | > 100 µM (inactive) | > 100 µM (inactive) | 52.1 µM (inactive) | > 100 µM (inactive) | > 100 µM (inactive) | > 100
7 | O=C1C=CC(=O)c2c1ccc1c3ccccc3n(-c3ccccc3)c21 | 5.65 µM (inactive) | 4.47 µM (inactive) | 13.1 µM (inactive) | 0.561 µM (active) | 20.5 µM (inactive) | 17.4 µM (inactive) | 8.83 µM (inactive) | – | 13.6 µM (inactive) | 24.9 µM (inactive) | 16.7 µM (inactive) | 0.986 µM (active) | 5.64 µM (inactive) | 15.2 µM (inactive) | 17.9 µM (inactive) | 0.271 µM (active) | 0.501 µM (active) | 13.9 µM (inactive) | 15.8 µM (inactive) | 3.48
8 | COC(=O)C1C(OCc2ccccc2)C2CCC1(OC)C=C2C (configuration not stated) | 42.8 µM (inactive) | > 100 µM (inactive) | > 50.8 µM (inactive) | 24.9 µM (inactive) | > 100 µM (inactive) | > 100 µM (inactive) | > 51.6 µM (inactive) | – | – | 62.5 µM (inactive) | > 85.5 µM (inactive) | 41.1 µM (inactive) | – | > 55.3 µM (inactive) | > 100 µM (inactive) | 17.8 µM (inactive) | 10.8 µM (inactive) | > 100 µM (inactive) | > 100 µM (inactive) | > 89.3
